Values of other authors as cited in article PMC4226840, “An open-label study to determine the maximum tolerated dose of the multitargeted tyrosine kinase inhibitor CEP-11981 in patients with advanced cancer” (Investigational New Drugs, 2014).

How the values were obtained:
[1] = test system: VEGFR-2; details: HUVEC; cited from earlier work
[2] = test system: treatment refractory metastatic colorectal cancer; set-up: method as in PMID 23177514; details: phase III, monotherapy, versus 5.0 months, P = 0.0052; cited from earlier work

CNC(=O)c1cc(Oc2ccc(NC(=O)Nc3ccc(Cl)c(C(F)(F)F)c3)c(F)c2)ccn1 [regorafenib]
Overall survival [2]: 6.4 months
